Assay results reported in patent publication EP2556819A1, “EXTERNAL SKIN PREPARATION” (Kao Corporation, priority 2010, dated 2011).
Values after ≈ are worked out from the molar mass of the structure shown.

Key:
B16 melanoma cells = assay: in vitro melanin production inhibition test; assay type: cell-based; settings: Mus musculus, concentration inhibiting production of melanin by 50%, cultured for 72 hours, theophylline 2 mmol/L, melanin per unit amount of protein
Experimental: The 4-(3-alkoxybutyl)phenol compound obtained in the above-mentioned Production Example 1 was subjected to the following melanin production inhibition test. Note here that as a comparison target, arbutin, ascorbic acid, kojic acid, and linoleic acid, which are known to have a melanin production-inhibitory action, were used. B16 melanoma cells were seeded in a minimum essential medium (MEM) supplemented with 10 vol% fetal bovine serum in 12-well plates at 1 × 10^4 cells/well, and pre-cultured for 24 hours by a usual method. After pre-culture, the medium was replaced to a test medium to which each evaluation sample had been added at various concentrations, and the medium was cultured for 72 hours. As the test medium, the above-mentioned pre-culture medium to which theophylline had been added at 2 mmol/L was used. After culture, cells were collected and dissolved in 1 mol/L of an aqueous solution of sodium hydroxide containing 10 vol% dimethyl sulfoxide, and an OD475 value of the solution was measured and the value was defined as an index of the amount of melanin. Furthermore, at the same time, by using Coomasie Plus Protein Assay Kit (manufactured by PIERCE), the total amount of protein in the solution was measured, and the amount of melanin per unit amount of protein was calculated. Based on the amount of melanin per unit amount of protein, the melanin production inhibition rate was calculated per each addition concentration from the following formula. Melanin production inhibition rate (%) = (A-B)/A [formula] (wherein A denotes the amount of melanin per unit amount of protein when no sample was added, and B denotes the amount of melanin per unit amount of protein when a sample was added). Next, a graph in which the concentration of the added sample is plotted on the axis of abscissas, and a melanin production inhibition rate is plotted in the axis of ordinates was formed, and concentration at which each evaluation sample inhibits the production of melanin by 50% (IC50) was determined from this graph.

[1] = test system: cultured skin model containing melanin cells (MEL-300, Asian Doner, manufactured by Kurabo Industries, Ltd.); assay: Melanin production inhibition test using three-dimensional cultured skin model; assay type: cell-based; settings: 336 h, cultured for 14 days, read-out: Melanin production inhibition rate (% with respect to control); for inhibition at 50 µM: Addition concentration 50 µM; for inhibition at 100 µM: Addition concentration 100 µM
Source text: 4-(3-alkoxybutyl)phenol obtained in the above-mentioned Production Example 1 was subjected to the below-mentioned melanin production inhibition test. Note here that as a comparison target, 4-(3-hydroxybutyl)phenol in which an alkyl group had been removed from 4-(3-alkoxybutyl)phenol -and 4-(3-acetoxybutyl)phenol and 4-(3-propanoyloxybutyl)phenol as an ester compound having the same number of carbon atoms, were used.
To a skin model cup of a cultured skin model containing melanin cells (MEL-300, Asian Doner, manufactured by Kurabo Industries, Ltd.), 0.2 mL of a solution of a test substance was placed, and the skin model was cultured for 14 days by using an LLMM medium attached to the product. During the culture period, the medium was replaced by a new medium every three days. After culture for 14 days, the skin model was washed, the survival rate was measured by fluorescence measurement (Excitation: 560 nm, Emission: 590 nm) using an AlamarBlue reagent (manufactured by Molecular Probe), and the amount of melanin synthesized in each skin model was measured. The amount of melanin synthesized was determined by the colorimetric determination (405 nm) of a solution obtained by immersing each skin model in PBS so as to separate a cell layer, then washing it with PBS and hydrous ethanol, adding 0.2 mL of a 2N NaOH aqueous solution, and extracting melanin at 100°C for three hours.

Solubility test = assay type: physicochemical; settings: thermodynamic from solid, 0.1 g compound + 1 mL solvent, heated at 40°C for 10 min., returned to room temperature, visual observation
Experimental: By using 4-(3-ethoxybutyl)phenol obtained in the above-mentioned Production Example 1, the following solubility test was carried out. Note here that as a comparison target, 4-(3-hydroxybuty)phenol was used.
To 0.1 g of each compound, 1 mL of each solvent described in the following table 1 was added. The mixture was heated at 40°C for 10 min., and then the temperature was returned to room temperature. The solubility in the solvent at this time was evaluated by visual observation. The evaluation was carried out in which a case where it was dissolved was evaluated as "a" and a case where insolubles were left was evaluated as "b."

[2] = oil or lipid, Glyceryl tri(2-ethylhexanoate)
[3] = oil or lipid, Isocetyl myristate
[4] = oil or lipid, Methylphenyl polysiloxane (Silicon FZ209)
[5] = oil or lipid, Octyldodecyl myristate
[6] = organic solvent or mixture, Dipropylene glycol
[7] = organic solvent or mixture, Ethanol

SMILES: O=c1cc(CO)occ1O [Kojic acid, kojic acid, reference compound]
- IC50 (B16 melanoma cells): 180 µg/mL (≈ 1270 µM)

SMILES: O=C1O[C@H]([C@@H](O)CO)C(O)=C1O [Ascorbic acid, ascorbic acid, reference compound]
- IC50 (B16 melanoma cells): 60 µg/mL (≈ 341 µM)

SMILES: CCC(=O)OC(C)CCc1ccc(O)cc1 (stereo not drawn) [4-(3-Propanoyloxybutyl)phenol, 4-(3-propanoyloxybutyl)phenol, reference compound]
- inhibition at 50 µM [1]: 18.4%

SMILES: COC(C)CCc1ccc(O)cc1 (stereo not drawn) [4-(3-Methoxybutyl)phenol, 4-(3-methoxybutyl)phenol]
- IC50 (B16 melanoma cells): 2 µg/mL (≈ 11.1 µM)
- inhibition at 100 µM [1]: 55.6%

SMILES: CC(C)OC(C)CCc1ccc(O)cc1 (stereo not drawn) [4-(3-Isopropoxybutyl)phenol, 4-(3-isopropoxybutyl)phenol]
- IC50 (B16 melanoma cells): 2 µg/mL (≈ 9.6 µM)
- inhibition at 50 µM [1]: 56.9%

SMILES: CCOC(C)CCc1ccc(O)cc1 (stereo not drawn) [4-(3-Ethoxybutyl)phenol, 4-(3-ethoxybutyl)phenol]
- solubility at 10 min (Solubility test; [2]): > 100 mg/mL
- solubility at 10 min (Solubility test; [3]): > 100 mg/mL
- solubility at 10 min (Solubility test; [4]): > 100 mg/mL
- solubility at 10 min (Solubility test; [5]): > 100 mg/mL
- solubility at 10 min (Solubility test; [6]): > 100 mg/mL
- solubility at 10 min (Solubility test; [7]): > 100 mg/mL
- IC50 (B16 melanoma cells): 2 µg/mL (≈ 10.3 µM)
- inhibition at 100 µM [1]: 56%

SMILES: CCCCC/C=C\C/C=C\CCCCCCCC(=O)O [Linoleic acid, linoleic acid, reference compound]
- IC50 (B16 melanoma cells): 4 µg/mL (≈ 14.3 µM)

SMILES: CCCOC(C)CCc1ccc(O)cc1 (stereo not drawn) [4-(3-Propoxybutyl)phenol, 4-(3-propoxybutyl)phenol]
- IC50 (B16 melanoma cells): 2.5 µg/mL (≈ 12 µM)
- inhibition at 50 µM [1]: 69.5%

SMILES: CC(=O)OC(C)CCc1ccc(O)cc1 (stereo not drawn) [4-(3-Acetoxybutyl)phenol, 4-(3-acetoxybutyl)phenol, reference compound]
- inhibition at 100 µM [1]: 26.7%

SMILES: CC(O)CCc1ccc(O)cc1 (stereo not drawn) [4-(3-Hydroxybutyl)phenol, 4-(3-hydroxybutyl)phenol, reference compound]
- solubility at 10 min (Solubility test; [2]): < 100 mg/mL
- solubility at 10 min (Solubility test; [3]): < 100 mg/mL
- solubility at 10 min (Solubility test; [4]): < 100 mg/mL
- solubility at 10 min (Solubility test; [5]): > 100 mg/mL
- solubility at 10 min (Solubility test; [6]): > 100 mg/mL
- solubility at 10 min (Solubility test; [7]): > 100 mg/mL
- inhibition at 100 µM [1]: 18.6%

SMILES: OC[C@H]1O[C@@H](Oc2ccc(O)cc2)[C@H](O)[C@@H](O)[C@@H]1O [Arbutin, arbutin, reference compound]
- IC50 (B16 melanoma cells): 30 µg/mL (≈ 110 µM)
